Legend:
Format in all cases: cell-based, HCV
[1] = test system: genotype 1a transient replicon (1a-H77); assay: 1a transient replicon (luciferase reporter); details: Hepatitis C virus, HuH-7 cells, 5% FBS
[2] = test system: genotype 1b transient replicon; assay: 1b transient replicon (luciferase reporter); details: Hepatitis C virus, HuH-7 cells, 5% FBS
[3] = test system: genotype 3a NS3 gene in transient replicon; assay: 3a transient replicon (luciferase reporter); details: Hepatitis C virus, Huh-7, read-out: 3a transient replicon (nM)
[4] = test system: genotype 1a replicon (1a-H77); assay: 1a stable replicon (luciferase reporter); details: Hepatitis C virus, Huh-7, luciferase reporter, HuH-7 cells, 5% FBS
[5] = test system: genotype 1b replicon (1b-Con1, 1b-N); assay: 1b stable replicon (luciferase reporter); details: Hepatitis C virus, HuH-7 cells, 5% FBS

Compound | EC50 [1] | EC50 [2] | EC50 [3] | EC50 [4] | EC50 [5]
CC1(S(=O)(=O)NC(=O)[C@@]23C[C@H]2/C=C\CCCCC[C@H](NC(=O)c2ccn(C(F)F)n2)C(=O)N2C[C@H](Oc4nc5cc(F)ccc5c5cc(OC(F)(F)F)ccc45)C[C@H]2C(=O)N3)CC1 | 100 to 500 pM | 100 to 500 pM | > 1 nM |  | 
CC1(S(=O)(=O)NC(=O)[C@@]23C[C@H]2/C=C\CCCCC[C@H](NC(=O)c2cncs2)C(=O)N2C[C@H](Oc4nc5cc(OC(F)(F)F)ccc5c5ccc(F)cc45)C[C@H]2C(=O)N3)CC1 | 100 to 500 pM | 100 to 500 pM | > 1 nM |  | 
Cc1cc(C(=O)N[C@H]2CCCCC/C=C\[C@@H]3C[C@@]3(C(=O)NS(=O)(=O)C3(C)CC3)NC(=O)[C@@H]3C[C@@H](Oc4nc5ccccc5c5ccc(OC(F)(F)F)cc45)CN3C2=O)no1 | < 100 pM | 100 to 500 pM | > 1 nM |  | 
Cn1ccc(C(=O)N[C@H]2CCCCC/C=C\[C@@H]3C[C@@]3(C(=O)NS(=O)(=O)C3(C)CC3)NC(=O)[C@@H]3C[C@@H](Oc4nc5ccccc5c5ccc(OC(F)(F)F)cc45)CN3C2=O)n1 | 100 to 500 pM | 100 to 500 pM | 0.1 to 0.5 nM |  | 
CC1(S(=O)(=O)NC(=O)[C@@]23C[C@H]2/C=C\CCCCC[C@H](NC(=O)[C@H](O)C(F)(F)F)C(=O)N2C[C@H](Oc4nc5cc(OC(F)(F)F)ccc5c5ccc(F)cc45)C[C@H]2C(=O)N3)CC1 | < 100 pM | < 100 pM | > 1 nM |  | 
Cc1cc(C(=O)N[C@H]2CCCCC/C=C\[C@@H]3C[C@@]3(C(=O)NS(=O)(=O)C3CC3)NC(=O)[C@@H]3C[C@@H](Oc4nc5cc(F)ccc5c5cc(OC(F)(F)F)ccc45)CN3C2=O)no1 | < 100 pM | 100 to 500 pM | > 1 nM |  | 
CC1(S(=O)(=O)NC(=O)[C@@]23C[C@H]2/C=C\CCCCC[C@H](NC(=O)c2ccn(C(F)F)n2)C(=O)N2C[C@H](Oc4nc5ccccc5c5ccc(OC(F)(F)F)cc45)C[C@H]2C(=O)N3)CC1 | 100 to 500 pM | 100 to 500 pM | > 1 nM |  | 
Cn1ccc(C(=O)N[C@H]2CCCCC/C=C\[C@@H]3C[C@@]3(C(=O)NS(=O)(=O)C3CC3)NC(=O)[C@@H]3C[C@@H](Oc4nc5cc(F)ccc5c5cc(F)ccc45)CN3C2=O)n1 | 100 to 500 pM | 100 to 500 pM |  | 500 to 1000 pM | < 100 pM
CC1(S(=O)(=O)NC(=O)[C@@]23C[C@H]2/C=C\CCCCC[C@H](NC(=O)c2ccn(C(F)F)n2)C(=O)N2C[C@H](Oc4nc5cc(F)ccc5c5ccccc45)C[C@H]2C(=O)N3)CC1 | 100 to 500 pM | 100 to 500 pM |  | 500 to 1000 pM | 100 to 500 pM
Cc1ccc(C(=O)N[C@H]2CCCCC/C=C\[C@@H]3C[C@@]3(C(=O)NS(=O)(=O)C3(C)CC3)NC(=O)[C@@H]3C[C@@H](Oc4nc5cc(OC(F)(F)F)ccc5c5ccc(F)cc45)CN3C2=O)s1 | 100 to 500 pM | 100 to 500 pM | > 1 nM |  | 
CC1(S(=O)(=O)NC(=O)[C@@]23C[C@H]2/C=C\CCCCC[C@H](NC(=O)[C@H](O)C(F)(F)F)C(=O)N2C[C@H](Oc4nc5cc(F)ccc5c5cc(F)ccc45)C[C@H]2C(=O)N3)CC1 | < 100 pM | < 100 pM | > 1 nM |  | 
Cn1ccc(C(=O)N[C@H]2CCCCC/C=C\[C@@H]3C[C@@]3(C(=O)NS(=O)(=O)C3(C)CC3)NC(=O)[C@@H]3C[C@@H](Oc4nc5cc(F)ccc5c5cc(OC(F)(F)F)ccc45)CN3C2=O)n1 | 100 to 500 pM | 100 to 500 pM | > 1 nM |  | 
CC1(S(=O)(=O)NC(=O)[C@@]23C[C@H]2/C=C\CCCCC[C@H](NC(=O)c2ccon2)C(=O)N2C[C@H](Oc4nc5cc(F)ccc5c5cc(OC(F)(F)F)ccc45)C[C@H]2C(=O)N3)CC1 | < 100 pM | 100 to 500 pM | > 1 nM |  | 
CC1(S(=O)(=O)NC(=O)[C@@]23C[C@H]2/C=C\CCCCC[C@H](NC(=O)c2ccn(C(F)F)n2)C(=O)N2C[C@H](Oc4nc5cc(F)ccc5c5ccc(OC(F)(F)F)cc45)C[C@H]2C(=O)N3)CC1 | 100 to 500 pM | 100 to 500 pM | > 1 nM |  | 
Cn1ccc(C(=O)N[C@H]2CCCCC/C=C\[C@@H]3C[C@@]3(C(=O)NS(=O)(=O)C3(C)CC3)NC(=O)[C@@H]3C[C@@H](Oc4nc5ccccc5c5cccc(F)c45)CN3C2=O)n1 | 100 to 500 pM | 100 to 500 pM |  | < 100 pM | 100 to 500 pM
Cc1ccc(C(=O)N[C@H]2CCCCC/C=C\[C@@H]3C[C@@]3(C(=O)NS(=O)(=O)C3(C)CC3)NC(=O)[C@@H]3C[C@@H](Oc4nc5ccccc5c5ccc(OC(F)(F)F)cc45)CN3C2=O)o1 | 100 to 500 pM | 100 to 500 pM | < 0.1 nM |  | 
Cc1cc(C(=O)N[C@H]2CCCCC/C=C\[C@@H]3C[C@@]3(C(=O)NS(=O)(=O)C3(C)CC3)NC(=O)[C@@H]3C[C@@H](Oc4nc5cc(OC(F)(F)F)ccc5c5ccc(F)cc45)CN3C2=O)no1 | 100 to 500 pM | 100 to 500 pM | > 1 nM |  | 
Cn1ccc(C(=O)N[C@H]2CCCCC/C=C\[C@@H]3C[C@@]3(C(=O)NS(=O)(=O)C3CC3)NC(=O)[C@@H]3C[C@@H](Oc4nc5ccccc5c5cc(OC(F)(F)F)ccc45)CN3C2=O)n1 | 100 to 500 pM | 100 to 500 pM | > 1 nM |  | 

Compound | EC50 [1] | EC50 [2] | EC50 [3] | EC50 [4] | EC50 [5]
CC1(S(=O)(=O)NC(=O)[C@@]23C[C@H]2/C=C\CCCCC[C@H](NC(=O)c2ccon2)C(=O)N2C[C@H](Oc4nc5ccccc5c5cc(F)ccc45)C[C@H]2C(=O)N3)CC1 | < 100 pM | 100 to 500 pM | 0.5 to 1 nM |  | 
CC1(S(=O)(=O)NC(=O)[C@@]23C[C@H]2/C=C\CCCCC[C@H](NC(=O)[C@H](O)C(F)(F)F)C(=O)N2C[C@H](Oc4nc5cc(OC(F)(F)F)ccc5c5ccccc45)C[C@H]2C(=O)N3)CC1 | < 100 pM | < 100 pM | 0.5 to 1 nM |  | 
Cn1ccc(C(=O)N[C@H]2CCCCC/C=C\[C@@H]3C[C@@]3(C(=O)NS(=O)(=O)C3(C)CC3)NC(=O)[C@@H]3C[C@@H](Oc4nc5cc(F)ccc5c5ccc(OC(F)(F)F)cc45)CN3C2=O)n1 | < 100 pM | 100 to 500 pM | 0.1 to 0.5 nM |  | 
COc1ccc2c(c1)nc(O[C@@H]1C[C@H]3C(=O)N[C@]4(C(=O)NS(=O)(=O)C5(C)CC5)C[C@H]4/C=C\CCCCC[C@H](NC(=O)c4ccon4)C(=O)N3C1)c1ccc(F)cc12 | < 100 pM | 100 to 500 pM | 0.1 to 0.5 nM |  | 
Cn1ccc(C(=O)N[C@H]2CCCCC/C=C\[C@@H]3C[C@@]3(C(=O)NS(=O)(=O)C3(C)CC3)NC(=O)[C@@H]3C[C@@H](Oc4nc5cc(OC(F)(F)F)ccc5c5ccc(F)cc45)CN3C2=O)n1 | < 100 pM | < 100 pM | 0.1 to 0.5 nM |  | 
CC1(S(=O)(=O)NC(=O)[C@@]23C[C@H]2/C=C\CCCCC[C@H](NC(=O)c2ccon2)C(=O)N2C[C@H](Oc4nc5cc(OC(F)(F)F)ccc5c5ccccc45)C[C@H]2C(=O)N3)CC1 | < 100 pM | < 100 pM | 0.1 to 0.5 nM |  | 
Cc1ccc(C(=O)N[C@H]2CCCCC/C=C\[C@@H]3C[C@@]3(C(=O)NS(=O)(=O)C3(C)CC3)NC(=O)[C@@H]3C[C@@H](Oc4nc5ccccc5c5cc(F)ccc45)CN3C2=O)s1 | 100 to 500 pM | 100 to 500 pM | > 1 nM |  | 
Cc1cc(C(=O)N[C@H]2CCCCC/C=C\[C@@H]3C[C@@]3(C(=O)NS(=O)(=O)C3(C)CC3)NC(=O)[C@@H]3C[C@@H](Oc4nc5cc(F)ccc5c5ccc(OC(F)(F)F)cc45)CN3C2=O)no1 | < 100 pM | 100 to 500 pM | > 1 nM |  | 
COc1ccc2c(c1)nc(O[C@@H]1C[C@H]3C(=O)N[C@]4(C(=O)NS(=O)(=O)C5(C)CC5)C[C@H]4/C=C\CCCCC[C@H](NC(=O)c4ccn(C(F)F)n4)C(=O)N3C1)c1ccc(F)cc12 | 100 to 500 pM | 100 to 500 pM | 0.5 to 1 nM |  | 
COc1ccc2c(c1)nc(O[C@@H]1C[C@H]3C(=O)N[C@]4(C(=O)NS(=O)(=O)C5(C)CC5)C[C@H]4/C=C\CCCCC[C@H](NC(=O)c4ccn(C)n4)C(=O)N3C1)c1ccc(F)cc12 | 100 to 500 pM | 100 to 500 pM | 0.1 to 0.5 nM |  | 
Cc1ccc(C(=O)N[C@H]2CCCCC/C=C\[C@@H]3C[C@@]3(C(=O)NS(=O)(=O)C3(C)CC3)NC(=O)[C@@H]3C[C@@H](Oc4nc5cc(OC(F)(F)F)ccc5c5cc(F)ccc45)CN3C2=O)s1 | 500 to 1000 pM | 100 to 500 pM | 0.1 to 0.5 nM |  | 
CC1(S(=O)(=O)NC(=O)[C@@]23C[C@H]2/C=C\CCCCC[C@H](NC(=O)[C@H](O)C(F)(F)F)C(=O)N2C[C@H](Oc4nc5ccccc5c5cc(F)ccc45)C[C@H]2C(=O)N3)CC1 | < 100 pM | < 100 pM | > 1 nM |  | 
CC1(S(=O)(=O)NC(=O)[C@@]23C[C@H]2/C=C\CCCCC[C@H](NC(=O)c2ccon2)C(=O)N2C[C@H](Oc4nc5cc(OC(F)(F)F)ccc5c5cc(F)ccc45)C[C@H]2C(=O)N3)CC1 | 100 to 500 pM | 100 to 500 pM | 0.1 to 0.5 nM |  | 
Cc1cc(C(=O)N[C@H]2CCCCC/C=C\[C@@H]3C[C@@]3(C(=O)NS(=O)(=O)C3CC3)NC(=O)[C@@H]3C[C@@H](Oc4nc5ccccc5c5cc(OC(F)(F)F)ccc45)CN3C2=O)no1 | < 100 pM | 100 to 500 pM | > 1 nM |  | 
Cc1ccc(C(=O)N[C@H]2CCCCC/C=C\[C@@H]3C[C@@]3(C(=O)NS(=O)(=O)C3(C)CC3)NC(=O)[C@@H]3C[C@@H](Oc4nc5cc(F)ccc5c5cc(F)ccc45)CN3C2=O)s1 | 100 to 500 pM | 100 to 500 pM | > 1 nM |  | 
CC1(S(=O)(=O)NC(=O)[C@@]23C[C@H]2/C=C\CCCCC[C@H](NC(=O)c2ccon2)C(=O)N2C[C@H](Oc4nc5cc(OC(F)(F)F)ccc5c5ccc(F)cc45)C[C@H]2C(=O)N3)CC1 | < 100 pM | < 100 pM | 0.5 to 1 nM |  | 
Cc1ccc(C(=O)N[C@H]2CCCCC/C=C\[C@@H]3C[C@@]3(C(=O)NS(=O)(=O)C3(C)CC3)NC(=O)[C@@H]3C[C@@H](Oc4nc5ccccc5c5cc(F)ccc45)CN3C2=O)o1 | 100 to 500 pM | 100 to 500 pM | 0.1 to 0.5 nM |  | 
